Oligonucleotides are written 5' to 3', each unit as a sugar letter and its base; * is a phosphorothioate linkage, no mark a phosphodiester; rarer units and linkages stand in square brackets, end groups in braces. Plain capitals give the bases only. e = 2'-O-(2-methoxyethyl) (MOE); [5mC] = 5-methylcytosine
Test system: mGrn mRNA
Test: mGrn mRNA qPCR in Neuro2a cells transfected with ASOs
Type: cell-based, mouse
Settings: for mGRN mRNA FC: Table 14, 100 nM, 48 hours, normalized to sNTC3; for 40 nM FC (mGrn mRNA) / 80 nM FC (mGrn mRNA) / 160 nM FC (mGrn mRNA): transfection
Method: 57 ASOs targeting the Grn promoter (− strand) were screened in Neuro2a cells. Neuro2a cells were transfected with 100 nM of each of the ASOs listed in Table 14 and cells were harvested 48 hours later for Grn mRNA quantification using qPCR. Housekeeping genes for normalization were Gapdh and Ppia. Relative Grn mRNA levels were normalized to mRNA extracted from cells treated with sNTC3 (steric nontargeting control).
Next, 26 ASOs based on parent ASOs CO-3544 and CO-3595 were designed with different modifications and base walking. Neuro2a cells were transfected with either […] or 160 nM of each of the ASOs listed in Table 15, and cells were harvested 48 hours later for mGrn mRNA quantification using qPCR. As controls, cells were treated with sNTC3 or no ASO. Housekeeping genes for normalization were Gapdh and Ppia. Relative Grn mRNA levels were normalized to mRNA extracted from cells treated with sNTC3.
CO-3544 was modified to include PO/PS bonds and the efficacy in upregulating mGrn mRNA was determined.
Similarly, CO-3595 was modified to include varying PO/PS internucleotide bonds and the efficacy of these ASOs in upregulating mGrn mRNA was determined in Neuro2A cells.

CO-3592: ASO targeting the Grn promoter (− strand) (antisense eG*eA*eA*eA*e[5mC]*e[5mC]*e[5mC]*e[5mC]*eT*eT*e[5mC]*e[5mC]*eA*eT*e[5mC]*eT*e[5mC]*eG*eA*e[5mC])
mGRN mRNA FC (Neuro2a): 1.2 FC

CO-3547: ASO targeting the Grn promoter (− strand) (antisense eA*eT*e[5mC]*eT*eG*eG*eA*eT*eT*eG*eG*e[5mC]*eT*e[5mC]*eA*e[5mC]*e[5mC]*eT*eT*eT)
mGRN mRNA FC (Neuro2a): 1.7 FC

CO-3571: ASO targeting the Grn promoter (− strand) (antisense eG*e[5mC]*eT*eA*eT*eG*eT*eT*eG*eT*e[5mC]*eA*eT*eA*eT*eG*eA*eT*eT*e[5mC])
mGRN mRNA FC (Neuro2a): 1.4 FC

CO-3553: ASO targeting the Grn promoter (− strand) (antisense e[5mC]*eA*eA*eG*eT*eG*eT*eT*e[5mC]*eT*e[5mC]*eT*eG*e[5mC]*eG*eG*e[5mC]*eG*eG*e[5mC])
mGRN mRNA FC (Neuro2a): 1.3 FC

CO-3559: ASO targeting the Grn promoter (− strand) (antisense eG*eT*eT*eG*eT*eA*eG*eA*eG*eA*e[5mC]*eA*e[5mC]*e[5mC]*eT*e[5mC]*e[5mC]*e[5mC]*e[5mC]*eG)
mGRN mRNA FC (Neuro2a): 1.4 FC

CO-5296: CO-3544 modified to include PO/PS bonds (antisense eG*eT*eTe[5mC]eTe[5mC]e[5mC]e[5mC]eTeAeGe[5mC]eTeGeTeG*eT*eA*eG*eT)
40 nM FC (mGrn mRNA) (Table 15, Neuro2a): 1.1 FC
80 nM FC (mGrn mRNA) (Table 15, Neuro2a): 1.1 FC
160 nM FC (mGrn mRNA) (Table 15, Neuro2a): 1.0 FC

CO-3584: ASO targeting the Grn promoter (− strand) (antisense eG*e[5mC]*eT*eT*e[5mC]*eA*eA*eT*eT*eT*eA*eA*eT*eG*e[5mC]*eA*eG*eT*eG*e[5mC])
mGRN mRNA FC (Neuro2a): 1.1 FC

CO-5313: CO-3595 modified to include varying PO/PS internucleotide bonds (antisense e[5mC]*e[5mC]*eTeGeAeAe[5mC]eT*eG*eT*eA*eT*eG*eG*e[5mC]*eT*eG*eA*e[5mC]*e[5mC])
40 nM FC (mGrn mRNA) (Table 16, Neuro2A): 1.3 FC
80 nM FC (mGrn mRNA) (Table 16, Neuro2A): 1.4 FC
160 nM FC (mGrn mRNA) (Table 16, Neuro2A): 1.5 FC

CO-3545: ASO targeting the Grn promoter (− strand) (antisense e[5mC]*eT*eA*eG*eT*eG*eG*eA*eA*eG*eA*eT*eG*eT*e[5mC]*eG*eG*eA*eG*e[5mC])
mGRN mRNA FC (Neuro2a): 1.7 FC

CO-3565: ASO targeting the Grn promoter (− strand) (antisense eG*eA*eG*e[5mC]*eT*eG*eA*e[5mC]*e[5mC]*eG*e[5mC]*e[5mC]*eA*eG*eA*eT*eG*e[5mC]*e[5mC]*eT)
mGRN mRNA FC (Neuro2a): 1.6 FC

CO-3579: ASO targeting the Grn promoter (− strand) (antisense eG*eA*e[5mC]*eT*eA*eT*eT*eT*eA*eT*e[5mC]*eT*eT*e[5mC]*eA*e[5mC]*e[5mC]*e[5mC]*eT*e[5mC])
mGRN mRNA FC (Neuro2a): 1.2 FC

CO-3562: ASO targeting the Grn promoter (− strand) (antisense eG*e[5mC]*e[5mC]*eT*eG*eT*eG*e[5mC]*eA*eA*eT*eT*eG*eA*eGeG*eG*eT*e[5mC]*e[5mC])
mGRN mRNA FC (Neuro2a): 1.1 FC

CO-3595: ASO targeting the Grn promoter (− strand) (antisense e[5mC]*e[5mC]*eT*eG*eA*eA*e[5mC]*eT*eG*eT*eA*eT*eG*eG*e[5mC]*eT*eG*eA*e[5mC]*e[5mC])
mGrn mRNA upregulation (Neuro2a, dose-dependent, normalized to sNTC3 (FIG. 13)): ≤ 1.8 fold
mGRN mRNA FC (Neuro2a): 2.3 FC
40 nM FC (mGrn mRNA) (Table 16, Neuro2A): 1.2 FC
80 nM FC (mGrn mRNA) (Table 16, Neuro2A): 1.3 FC
160 nM FC (mGrn mRNA) (Table 16, Neuro2A): 1.4 FC

CO-3589: ASO targeting the Grn promoter (− strand) (antisense eT*eT*eT*e[5mC]*eA*eA*e[5mC]*e[5mC]*e[5mC]*eT*eT*eG*e[5mC]*eT*eA*eG*eA*eG*eG*e[5mC])
mGRN mRNA FC (Neuro2a): 1.3 FC

CO-3575: ASO targeting the Grn promoter (− strand) (antisense eG*eT*eA*eA*eA*e[5mC]*eG*eA*e[5mC]*e[5mC]*eT*eT*eG*eA*eA*e[5mC]*eG*e[5mC]*eG*eT)
mGRN mRNA FC (Neuro2a): 1.2 FC

CO-3583: ASO targeting the Grn promoter (− strand) (antisense eT*e[5mC]*e[5mC]*e[5mC]*e[5mC]*e[5mC]*e[5mC]*eA*eG*eT*eT*eT*eG*eA*eG*e[5mC]*e[5mC]*eA*eA*eT)
mGRN mRNA FC (Neuro2a): 1.2 FC

CO-3554: ASO targeting the Grn promoter (− strand) (antisense eG*eG*e[5mC]*eT*e[5mC]*eT*eT*eT*e[5mC]*eT*e[5mC]*eT*eT*eT*e[5mC]*eG*eG*eA*e[5mC]*eG)
mGRN mRNA FC (Neuro2a): 1.2 FC

CO-3580: ASO targeting the Grn promoter (− strand) (antisense eG*e[5mC]*e[5mC]*eA*e[5mC]*eT*e[5mC]*eT*e[5mC]*e[5mC]*e[5mC]*e[5mC]*eA*eT*eT*e[5mC]*eA*eA*eA*e[5mC])
mGRN mRNA FC (Neuro2a): 1.2 FC

CO-3556: ASO targeting the Grn promoter (− strand) (antisense eA*eG*eG*eA*e[5mC]*eA*eG*eG*eA*eA*e[5mC]*e[5mC]*eA*e[5mC]*e[5mC]*e[5mC]*e[5mC]*eA*e[5mC]*eT)
mGRN mRNA FC (Neuro2a): 1.3 FC

CO-5308: CO-3595 modified to include varying PO/PS internucleotide bonds (antisense e[5mC]*e[5mC]*eT*eG*eA*eA*e[5mC]*eT*eG*eT*eA*eT*eGeGe[5mC]eTeG*eA*e[5mC]*e[5mC])
40 nM FC (mGrn mRNA) (Table 16, Neuro2A): 1.3 FC
80 nM FC (mGrn mRNA) (Table 16, Neuro2A): 1.4 FC
160 nM FC (mGrn mRNA) (Table 16, Neuro2A): 2.0 FC

CO-5306: CO-3595 modified to include varying PO/PS internucleotide bonds (antisense e[5mC]*e[5mC]*eT*eG*eA*eA*e[5mC]*eT*eGeTeAeTeGeGe[5mC]eTeG*eA*e[5mC]*e[5mC])
40 nM FC (mGrn mRNA) (Table 16, Neuro2A): 1.2 FC
80 nM FC (mGrn mRNA) (Table 16, Neuro2A): 1.0 FC
160 nM FC (mGrn mRNA) (Table 16, Neuro2A): 1.3 FC

CO-3552: ASO targeting the Grn promoter (− strand) (antisense e[5mC]*e[5mC]*eT*eT*eG*eG*e[5mC]*e[5mC]*e[5mC]*e[5mC]*e[5mC]*eA*eG*eA*eG*e[5mC]*eT*e[5mC]*eA*eA)
mGRN mRNA FC (Neuro2a): 1.1 FC

CO-5295: CO-3544 modified to include PO/PS bonds (antisense eG*eT*eT*e[5mC]*eT*e[5mC]*e[5mC]*e[5mC]*eT*eA*eG*e[5mC]*eTeGeTeGeT*eA*eG*eT)
40 nM FC (mGrn mRNA) (Table 15, Neuro2a): 1.1 FC
80 nM FC (mGrn mRNA) (Table 15, Neuro2a): 1.3 FC
160 nM FC (mGrn mRNA) (Table 15, Neuro2a): 1.4 FC

CO-3598: ASO targeting the Grn promoter (− strand) (antisense eT*eA*eA*eG*eA*eA*eG*e[5mC]*e[5mC]*e[5mC]*eT*e[5mC]*eA*e[5mC]*eG*eG*eA*eA*eT*eT)
mGRN mRNA FC (Neuro2a): 1.3 FC

CO-3596: ASO targeting the Grn promoter (− strand) (antisense e[5mC]*eT*e[5mC]*eT*eA*eT*eG*eT*eA*eA*eG*eA*e[5mC]*eT*e[5mC]*e[5mC]*e[5mC]*eA*e[5mC]*eT)
mGRN mRNA FC (Neuro2a): 1.4 FC

CO-3597: ASO targeting the Grn promoter (− strand) (antisense eA*e[5mC]*eA*eA*e[5mC]*e[5mC]*e[5mC]*eT*eG*e[5mC]*eA*eT*eG*e[5mC]*eA*e[5mC]*eT*e[5mC]*e[5mC]*eT)
mGRN mRNA FC (Neuro2a): 1.2 FC

CO-3599: ASO targeting the Grn promoter (− strand) (antisense eA*eT*eG*eA*eT*eG*e[5mC]*eA*e[5mC]*e[5mC]*eA*eG*eT*e[5mC]*eT*eT*eA*e[5mC]*eA*e[5mC])
mGRN mRNA FC (Neuro2a): 1.0 FC

CO-3550: ASO targeting the Grn promoter (− strand) (antisense eG*eG*eT*eT*eG*eT*eG*eT*e[5mC]*eA*eG*e[5mC]*eT*eT*eT*eA*eT*eT*eT*e[5mC])
mGRN mRNA FC (Neuro2a): 0.9 FC

CO-5311: CO-3595 modified to include varying PO/PS internucleotide bonds (antisense e[5mC]*e[5mC]*eTeGeAeAe[5mC]eTeGeTeAeT*eG*eG*e[5mC]*eT*eG*eA*e[5mC]*e[5mC])
40 nM FC (mGrn mRNA) (Table 16, Neuro2A): 1.5 FC
80 nM FC (mGrn mRNA) (Table 16, Neuro2A): 1.7 FC
160 nM FC (mGrn mRNA) (Table 16, Neuro2A): 1.7 FC

CO-3560: ASO targeting the Grn promoter (− strand) (antisense eT*eG*eA*eT*eG*e[5mC]*eA*e[5mC]*eT*eA*eA*e[5mC]*eG*eA*eG*eG*eT*eT*eG*eT)
mGRN mRNA FC (Neuro2a): 1.2 FC

CO-3577: ASO targeting the Grn promoter (− strand) (antisense e[5mC]*eT*eG*e[5mC]*e[5mC]*eA*eG*eG*e[5mC]*eG*eT*eG*eA*eA*eG*eA*eG*eA*e[5mC]*eA)
mGRN mRNA FC (Neuro2a): 1.1 FC

CO-3567: ASO targeting the Grn promoter (− strand) (antisense e[5mC]*e[5mC]*e[5mC]*eT*eG*eG*eA*eT*e[5mC]*eT*e[5mC]*e[5mC]*eG*eA*eG*e[5mC]*eA*eA*eT*eG)
mGRN mRNA FC (Neuro2a): 1.1 FC

CO-3591: ASO targeting the Grn promoter (− strand) (antisense e[5mC]*e[5mC]*eA*e[5mC]*e[5mC]*eA*eG*e[5mC]*e[5mC]*eT*eA*e[5mC]*eT*e[5mC]*e[5mC]*eA*e[5mC]*eA*eG*eG)
mGRN mRNA FC (Neuro2a): 1.4 FC
